{
  "source": "patent US20230132526A1",
  "about": "(Institute of Materia Medica, Chinese Academy of Medical …, priority 2020, published 2023)",
  "key": {"[1]": {"tested_on": "phosphorylated Akt", "test": "Level of phosphorylated Akt by western blotting in primary mouse hepatocytes treated with EphB4 inhibitor", "assay_type": "cell-based", "details": "LCA 10 μM and 20 μM overnight, 10 nM insulin 20 min before collection, western blotting (FIG. 2C)", "description": "After the liver tissue was fully digested, it was suspended with DMEM medium, flew through a cell sieve with a diameter of 70 μm, and was centrifugated, thereby the primary hepatocytes were obtained. The cells were resuspended in complete culture medium and dispersed into a petri dish or plate. After the cells were attached, they were treated with LCA (10 μM and 20 μM) overnight."}, "[2]": {"tested_on": "flag-InsR", "test": "Protein level of flag-InsR by Western blotting in HEK293T cells co-expressing insulin receptor and EphB4, treated with degradation pathway inhibitors", "assay_type": "cell-based", "details": "HEK293T cells co-expressing flag-InsR and EphB4-HA; ammonium chloride 5 mM, chloroquine 10 μM, 8 h; Western blotting (FIG. 2B)", "description": "GFP was co-transfected as a reference for foreign proteins. The cells were treated with proteasome degradation pathway inhibitor MG132 (10 μM), lysosome degradation pathway inhibitor ammonium chloride (5 mM) and chloroquine (10 μM) for 8 h."}},
  "data": [
    {"smiles": "C[C@H](CCC(=O)O)[C@H]1CC[C@H]2[C@@H]3CC[C@@H]4C[C@H](O)CC[C@]4(C)[C@H]3CC[C@]12C", "note": "[LCA, 3α-hydroxy-5β-cholanoic acid]", "values": [
      {"measurement": "level of phosphorylated Akt", "setting": "[1]", "value": "increase the level of phosphorylated Akt"}
    ]},
    {"smiles": "Cl.N", "note": "[ammonium chloride, Ammonium chloride]", "values": [
      {"measurement": "protein level of flag-InsR (effect on EphB4-promoted insulin receptor degradation)", "setting": "[2]", "value": "partially rescue the promoting effect of EphB4 on insulin receptor degradation to some extent"}
    ]},
    {"smiles": "CCN(CC)CCCC(C)Nc1ccnc2cc(Cl)ccc12", "note": "(stereo not drawn) [chloroquine]", "values": [
      {"measurement": "protein level of flag-InsR (effect on EphB4-promoted insulin receptor degradation)", "setting": "[2]", "value": "partially rescue the promoting effect of EphB4 on insulin receptor degradation to some extent"}
    ]}
  ]
}
